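Growth conditions: 96-well plates. Treatment: test compound, 48 hours, 5 concentrations. Analysis: linear interpolation between bracketing concentrations; unreached endpoints set to highest concentration. TGI is the concentration that stops growth completely.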

Test systems include A549 NSCLC; DU-145 prostate; HCC-2998 colon; HCT-15 colon; HS 578T breast; HT29 colon; KM12 colon; NCI-H23 lung; NCI-H522 lung; NCI/ADR-RES ovarian; OVCAR-8 ovarian; SF-268 CNS; SF-295 CNS; SK-MEL-5 melanoma; SK-OV-3 ovarian; SN12C renal; SNB-75 CNS; U251 CNS; UACC-62 melanoma.
Holding throughout (assay): NCI anticancer screen, dose series, 48 h

Take `N=C1/C(=C/c2ccco2)C(=O)N=C2SC=NN12`: the TGI in the test with A549 NSCLC, with DU-145 prostate, with HCC-2998 colon, in the test on HCT-15 colon, in the test on HS 578T breast and with HT29 colon was greater than 100 µM throughout. In addition, the TGI with KM12 colon, with NCI-H23 lung, with NCI-H522 lung, with NCI/ADR-RES ovarian, in the test on OVCAR-8 ovarian and in the test with SF-268 CNS was greater than 100 µM each time. In addition, the TGI in the test on SF-295 CNS, with SK-MEL-5 melanoma, in the test with SK-OV-3 ovarian, in the test on SN12C renal, in the test with SNB-75 CNS and with U251 CNS was greater than 100 µM in each case. The compound further displayed a TGI in the test on UACC-62 melanoma greater than 100 µM.
In the case of `CSc1ccc(/C=C/C(=O)c2nc3ccccc3[nH]2)cc1`, the TGI with A549 NSCLC is 98.6 µM; in the test with DU-145 prostate it was 13.2 µM; with HCC-2998 colon, 23.7 µM; with HCT-15 colon, 40.6 µM; in the test with HS 578T breast it was greater than 100 µM; in the test on HT29 colon, 46.2 µM. In addition, the TGI in the test on KM12 colon is 57 µM; in the test on NCI-H23 lung it was 89.5 µM; with NCI-H522 lung, 33.5 µM; in the test on NCI/ADR-RES ovarian, 64.1 µM; with OVCAR-8 ovarian it was greater than 100 µM; in the test on SF-268 CNS, 93.6 µM. Further, the TGI in the test with SF-295 CNS is greater than 100 µM; with SK-MEL-5 melanoma it was 57.8 µM; in the test with SK-OV-3 ovarian, greater than 100 µM; in the test on SN12C renal it was greater than 100 µM; in the test with SNB-75 CNS, 43.8 µM; with UACC-62 melanoma it was 36.2 µM.
Consider `CC(=O)NC1C(O)C(O)C(CO)OC1n1nc(SCc2ccccc2)c(=O)[nH]c1=O` (configuration not stated), for which the TGI with A549 NSCLC, with DU-145 prostate, in the test with HCC-2998 colon, in the test on HCT-15 colon, with HS 578T breast and with HT29 colon was greater than 100 µM each time. The TGI with KM12 colon, with NCI-H23 lung, in the test with NCI-H522 lung, in the test with NCI/ADR-RES ovarian, with OVCAR-8 ovarian and in the test with SF-268 CNS was greater than 100 µM in each case. Also, the TGI with SF-295 CNS, in the test on SK-MEL-5 melanoma, in the test with SK-OV-3 ovarian, in the test on SN12C renal, in the test with SNB-75 CNS and with U251 CNS was greater than 100 µM throughout. Further, in the test with UACC-62 melanoma, the TGI is greater than 100 µM.
Take `O=P1(N(CCCl)CCCl)Oc2c(Cl)cc(Cl)c(Cl)c2Cc2c(Cl)c(Cl)cc(Cl)c2O1`: the TGI in the test with A549 NSCLC, in the test on DU-145 prostate, in the test with HCC-2998 colon, with HCT-15 colon, in the test on HS 578T breast and in the test with HT29 colon was greater than 100 µM each time. Moreover, the TGI in the test with KM12 colon, in the test on NCI-H23 lung, with NCI-H522 lung, in the test on NCI/ADR-RES ovarian, with OVCAR-8 ovarian and with SF-268 CNS was greater than 100 µM each time. Also, the TGI in the test with SF-295 CNS, in the test on SK-MEL-5 melanoma, in the test with SK-OV-3 ovarian, in the test on SN12C renal, with SNB-75 CNS and in the test with U251 CNS was greater than 100 µM each time. Further, the TGI in the test on UACC-62 melanoma is greater than 100 µM.
For `COc1cc2c(NCCN(C)C)nc3c4cc5c(cc4ccc3c2cc1OC)OCO5`, the TGI came to 6.67 µM in the test with A549 NSCLC; 7.32 µM in the test on DU-145 prostate; 8.93 µM in the test on HCC-2998 colon; 6.56 µM in the test on HCT-15 colon; 12.4 µM in the test on HS 578T breast; 6.56 µM in the test on HT29 colon. Besides, the TGI is 8.07 µM in the test on KM12 colon; 6.32 µM in the test on NCI-H23 lung; 8.02 µM with NCI-H522 lung; 8.31 µM with NCI/ADR-RES ovarian; 6.97 µM in the test on OVCAR-8 ovarian; 8.98 µM in the test with SF-268 CNS. Also, the TGI in the test with SF-295 CNS is 5.7 µM; in the test on SK-MEL-5 melanoma, 5.87 µM; in the test with SK-OV-3 ovarian, 8.65 µM; in the test on SN12C renal it was 8.17 µM; with SNB-75 CNS, 5.39 µM; in the test on U251 CNS, 7.83 µM. This compound registered a TGI with UACC-62 melanoma of 8.41 µM.
`CCOP(=O)(OCC)c1cc2cc(O)ccc2oc1=O`: the TGI with A549 NSCLC, with DU-145 prostate, in the test on HCC-2998 colon, in the test with HCT-15 colon, with HS 578T breast and in the test with HT29 colon was greater than 100 µM in each case. The TGI in the test on KM12 colon, in the test on NCI-H23 lung, in the test on NCI-H522 lung, in the test with NCI/ADR-RES ovarian, in the test with OVCAR-8 ovarian and in the test with SF-268 CNS was greater than 100 µM each time. For the same compound, the TGI in the test with SF-295 CNS, with SK-MEL-5 melanoma, in the test on SK-OV-3 ovarian, with SN12C renal, with SNB-75 CNS and in the test with U251 CNS was greater than 100 µM each time. Further, the TGI with UACC-62 melanoma was greater than 100 µM.
`COCn1c(=O)n(C)c(=O)c2c1nc1c(c(=O)n(C)c(=O)n1COC)[n+]2[O-]`: the TGI in the test with A549 NSCLC is 91.2 µM; in the test on DU-145 prostate it was 94.9 µM; in the test on HCC-2998 colon it was 18.1 µM; with HCT-15 colon, 30.6 µM; with HS 578T breast it was 50.1 µM; in the test with HT29 colon, greater than 100 µM. Further, the TGI was greater than 100 µM in the test with KM12 colon; 14 µM with NCI-H23 lung; 44 µM in the test on NCI-H522 lung; greater than 100 µM in the test with NCI/ADR-RES ovarian; 45.1 µM in the test with OVCAR-8 ovarian; 77 µM with SF-268 CNS. The TGI in the test with SF-295 CNS is 55.4 µM; in the test with SK-MEL-5 melanoma, 19.7 µM; in the test on SK-OV-3 ovarian, 36.1 µM; in the test with SN12C renal, 83.7 µM; in the test with SNB-75 CNS it was 22.3 µM; with U251 CNS, 59.6 µM. For the same compound, the TGI in the test with UACC-62 melanoma was 33.7 µM.
